# Test results: US20080107623A1, “Inhibitors of Hepatitis C Virus” (Bristol-Myers Squibb Company, priority 2006, published 2008)
# pIC50: −log10 of the molar value.
# What was measured:
# human liver cathepsin B = target: T1, human liver cathepsin B (Homo sapiens, UniProt P07858); test: Specificity assay, cathepsin B (AMC substrate); type: biochemical
# T1 construct: purchased Sigma or EMDbiosciences; host or cells: human liver (as named)
# Experimental: (§1) The specificities of compounds of the present disclosure were determined against a variety of serine proteases: human neutrophil elastase (HNE), porcine pancreatic elastase (PPE) and human pancreatic chymotrypsin and one cysteine protease: human liver cathepsin B. In all cases, a 96-well plate format protocol using colorimetric p-nitroaniline (pNA) substrate or fluorometric Amino-Methyl-Coumarin (AMC) substrate, specific for each enzyme was used as described previously (PCT Patent Application No. WO 00/09543) with some modifications. All enzymes were purchased from Sigma or EMDbiosciences while the substrates were from Bachem.
# Each pNA assay included a 2 h enzyme-inhibitor pre-incubation at room temperature followed by addition of substrate and hydrolysis to ˜15% conversion as measured on a Spectramax Pro microplate reader. The cathepsin B assay was initiated by adding substrate to a 10 min enzyme-inhibitor pre-incubation at room temperature, and the assay plate measured immediately using the Cytofluor Series 4000. Compound concentrations varied from 100 to 0.4 μM depending on their potency. […]
# (§2) The percentage of inhibition was calculated using the formula: [1−((UVinh−UVblank)/(UVctl−UVblank))]×100 […]
# [1] = target: T2, human neutrophil elastase (HNE) (Homo sapiens, UniProt P08246); test: Specificity assay, elastase (pNA substrate); type: biochemical; conditions: read-out: HLE activity in the specificity assay (IC50)
# T2 construct: purchased Sigma or EMDbiosciences
# T2 sequence (P08246 30-267): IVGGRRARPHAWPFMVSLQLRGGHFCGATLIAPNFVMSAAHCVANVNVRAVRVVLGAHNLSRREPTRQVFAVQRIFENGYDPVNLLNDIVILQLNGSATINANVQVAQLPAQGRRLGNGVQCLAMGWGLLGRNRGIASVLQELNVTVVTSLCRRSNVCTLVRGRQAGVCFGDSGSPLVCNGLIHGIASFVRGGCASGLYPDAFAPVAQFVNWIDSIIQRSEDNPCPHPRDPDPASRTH
# Experimental: as §1
# Each pNA assay included a 2 h enzyme-inhibitor pre-incubation at room temperature followed by addition of substrate and hydrolysis to ˜15% conversion as measured on a Spectramax Pro microplate reader. The cathepsin B assay was initiated by adding substrate to a 10 min enzyme-inhibitor pre-incubation at room temperature, and the assay plate measured immediately using the Cytofluor Series 4000. Compound concentrations varied from 100 to 0.4 μM depending on their potency.
# 50 mM Tris(hydroxymethyl)aminomethane hydrochloride (Tris-HCl) pH 8, 0.5 M Sodium Sulfate (Na2SO4), 50 mM NaCl, 0.1 mM EDTA, 3% DMSO, 0.01% Tween-20 with: […]
# as §2
structure (smiles),measurement,setting,value
COc1c(O[C@@H]2C[C@H]3C(=O)N[C@]4(C(=O)NS(=O)(=O)C5CC5)C[C@H]4/C=C\CCCCC[C@H](NC(=O)OC(C)(C)C)C(=O)N3C2)ccc2c(Cl)nccc12 [Compound 3],pIC50,human liver cathepsin B,≤ 4.00
same,pIC50,[1],< 4.60
